Here are results for 28 molecules from patent US20070010671A1, “Novel quinazoline derivatives and methods of treatment related to the use thereof” (priority 2003, published 2007).

One assay addresses MCH receptor (Homo sapiens, UniProt Q99705). The assay can be described thus: High throughput functional screening FLIPR/FDSS6000: inhibition of MCH-evoked intracellular Ca2+ changes. It counts as cell-based. Particulars: class by percent of control at 10^-7 M or IC50. From the text:
Subsequently, a functional based assay was used to confirm the lead hits, referred to as FLIPR™ (the Fluorometric Imaging Plate Reader) and FDSS6000™ (Functional Drug Screening System). This assay utilized 3 non-endozenous, constitutively active version of the MCH receptor.
The FLIPR and FDSS assays are able to detect intracellular Ca^2+ concentration in cells, which can be utilized to assess receptor activation and determine whether a candidate compound is an, for example, antagonist, inverse agonist or agonist to a Gq-coupled receptor. The concentration of free Ca^2+ in the cytosol of any cell is extremely low, whereas its concentration in the extracellular fluid and endoplasmic reticulum (ER) is very high. Thus, there is a large gradient tending to drive Ca^2+ into the cytosol across both the plasma membrane and ER. The FLIPR™ and FDSS6000™ systems (Molecular Devices Corporation, HAMAMATSU Photonics K.K.) are designed to perform functional cell-based assays, such as the measurement of intracellular calcium for high-throughput screening, The measurement of fluorescent is associated with calcium release upon activation of the Gq-coupled receptors.
Fluorometric Imaging Plate Reader system was used to allow for rapid, kinetic measurements of intracellular fluorescence in 96 well microplates (or 384 well microplates). Simultaneous measurements of fluorescence in all wells can be made by FLIPR or FDSS6000™ every second with high sensitivity and precision. These systems are ideal for measuring cell-based functional assays such as monitoring the intracellular calcium fluxes that occur within seconds after activation of the Gq coupled receptor.
Briefly, the cells are seeded into 96 well at 5.5×10^4 cells/well with complete culture media (Dulbecco's Modified Eagle Medium with 10% fetal bovine serum, 2 mMi L-glutamine, 1 mM sodium pyruvate and 0.5 mg/ml G418, pH 7.4) for the assay next day. On the day of assay, the media is removed and the cells are incubated with 100 μl of loading buffer (4 μM Fluo4-AM in complete culture media containing 2.5 mM Probenicid, 0.5 mg/ml and 0.2% bovine serum albumin) in 5% CO2 incubator at 37° C. for 1 hr. The loading buffer is removed, and the cells are washed with wash buffer (Hank's Balanced Salt Solution containing 2.5 mM Probenicid, 20 mM HEPES, 0.5 mg/ml and 0.2% bovine serum albumm, pH 7.4)). One hundred fifty μl of wash buffer containing various concentrations of test compound is added to the cells, and the cells are incubated in 5% CO2 incubator at 37° C. for 3 min. Fifty μl of wash buffer containing various concentration of MCH are added to each well, and transient changes in [Ca^2+]i evokled bee MCH are monoitored using the FLIPR, or FDSS in 96 shell plates at Ex. 488 nm and Em. 530 nm for 290 second. When antagonist activity of compound is tested, 50 nM of MCH is used.
Use of FLIPR™ and FDSS6000™ can be accomplished by following manufacturer's instruction (Molecular Device Corporation and HAMAMATSU Photonics K.K.).
As to `CC(C)c1ccc(NC(=S)NC[C@H]2CC[C@@H](Nc3nc(N(C)C)c4ccccc4n3)CC2)c(Br)c1` [compound 784], the class is given as 3 (Class 3: The value of percent of control at 10^−7 M was more than 60% or the value of IC50 was more than 200 nM.).

For the molecule `CN(C)c1nc(N[C@H]2CC[C@@H](NC(=O)NCCc3cccs3)CC2)nc2ccccc12` [compound 337, N-(cis-4-{[4-(dimethylamino)quinazolin-2-yl]amino}cyclohexyl)-N′-[2-(2-thienyl)ethyl]urea], the class is 2 (Class 2: The value of percent of control at 10^−7 M was from 40% to 60% or the value of IC50 was from 50 nM to 200 nM.).

For `CN(C)c1nc(N[C@H]2CC[C@@H](NC(=S)NCC3CCCCC3)CC2)nc2ccccc12` [compound 286, N-(cyclohexylmethyl)-N′-(cis-4-{[4-(dimethylamino)quinazolin-2-yl]amino}cyclohexyl)thiourea], the class was 2 (Class 2: The value of percent of control at 10^−7 M was from 40% to 60% or the value of IC50 was from 50 nM to 200 nM.).

Regarding `CN(C)c1nc(N[C@H]2CC[C@@H](NC(=O)NC3CCN(C(=O)OCc4ccccc4)CC3)CC2)nc2ccccc12` [compound 350], the class is 3 (Class 3: The value of percent of control at 10^−7 M was more than 60% or the value of IC50 was more than 200 nM.).

On to `Cc1ccccc1NC(=O)NC[C@H]1CC[C@@H](Nc2nc(N(C)C)c3ccccc3n2)CC1` [compound 460, N-[(cis-4-{[4-(dimethylamino)quinazolin-2-yl]amino}cyclohexyl)methyl]-N′-(2-methylphenyl)urea], for which the class is on record as 1 (Class 1: The value of percent of control at 10^−7 M was less than 40% or the value of IC50 was less than 50 nM.).

Turning to `Cc1cccc(NC(=S)N[C@H]2CC[C@@H](Nc3nc(N(C)C)c4ccccc4n3)CC2)c1C` [compound 359, N-(cis-4-{[4-(dimethylamino)quinazolin-2-yl]amino}cyclohexyl)-N′-(2,3-dimethylphenyl)thiourea], the class is 1 (Class 1: The value of percent of control at 10^−7 M was less than 40% or the value of IC50 was less than 50 nM.).

Turning to `CN(C)c1nc(N[C@H]2CC[C@@H](CNC(=S)NCC(c3ccccc3)c3ccccc3)CC2)nc2ccccc12` [compound 714], the class is reported as 3 (Class 3: The value of percent of control at 10^−7 M was more than 60% or the value of IC50 was more than 200 nM.).

Take `CCOc1ccccc1NC(=S)N[C@H]1CC[C@@H](Nc2nc(N(C)C)c3ccccc3n2)CC1` [compound 365, N-(cis-4-{[4-(dimethylamino)quinazolin-2-yl]amino}cyclohexyl)-N′-(2-ethoxyphenyl)thiourea]: the class is on record as 1 (Class 1: The value of percent of control at 10^−7 M was less than 40% or the value of IC50 was less than 50 nM.).

Consider `COc1ccc(C)cc1NC(=S)NC[C@H]1CC[C@@H](Nc2nc(N(C)C)c3ccccc3n2)CC1` [compound 645], for which the class is recorded as 3 (Class 3: The value of percent of control at 10^−7 M was more than 60% or the value of IC50 was more than 200 nM.).

On to `Cc1ccc(NC(=S)N[C@H]2CC[C@@H](Nc3nc(N(C)C)c4ccccc4n3)CC2)cc1Cl` [compound 262], for which the class was 2 (Class 2: The value of percent of control at 10^−7 M was from 40% to 60% or the value of IC50 was from 50 nM to 200 nM.).

Take `CCCCNC(=O)NC[C@H]1CC[C@@H](Nc2nc(N(C)C)c3ccccc3n2)CC1` [compound 414, N-butyl-N′-[(cis-4-{[4-(dimethylamino)quinazolin-2-yl]amino}cyclohexyl)methyl]urea]: the class was 2 (Class 2: The value of percent of control at 10^−7 M was from 40% to 60% or the value of IC50 was from 50 nM to 200 nM.).

For `CN(C)c1nc(N[C@H]2CC[C@@H](NC(=S)Nc3c(F)cc(F)cc3F)CC2)nc2ccccc12` [compound 247], the class is reported as 3 (Class 3: The value of percent of control at 10^−7 M was more than 60% or the value of IC50 was more than 200 nM.).

Take `CN(C)c1nc(N[C@H]2CC[C@@H](CNC(=S)Nc3ccc(Br)cc3OC(F)(F)F)CC2)nc2ccccc12` [compound 793]: the class is given as 2 (Class 2: The value of percent of control at 10^−7 M was from 40% to 60% or the value of IC50 was from 50 nM to 200 nM.).

For `CN(C)c1nc(N[C@H]2CC[C@@H](CNC(=S)Nc3ccc(Br)cc3Cl)CC2)nc2ccccc12` [compound 657], the class was 3 (Class 3: The value of percent of control at 10^−7 M was more than 60% or the value of IC50 was more than 200 nM.).

`CC(C)c1ccccc1NC(=S)N[C@H]1CC[C@@H](Nc2nc(N(C)C)c3ccccc3n2)CC1` [compound 256, N-(cis-4-{[4-(dimethylamino)quinazolin-2-yl]amino}cyclohexyl)-N′-(2-isopropylphenyl)thiourea]: the class is 1 (Class 1: The value of percent of control at 10^−7 M was less than 40% or the value of IC50 was less than 50 nM.).

As for `CN(C)c1nc(N[C@H]2CC[C@@H](CNC(=O)Nc3ccc4c(c3)OCCO4)CC2)nc2ccccc12` [compound 758], the class is reported as 3 (Class 3: The value of percent of control at 10^−7 M was more than 60% or the value of IC50 was more than 200 nM.).

In the case of `CCOC(=O)c1cccc(NC(=S)NC[C@H]2CC[C@@H](Nc3nc(N(C)C)c4ccccc4n3)CC2)c1` [compound 730], the class was 3 (Class 3: The value of percent of control at 10^−7 M was more than 60% or the value of IC50 was more than 200 nM.).

Staying with this assay, now noted: class by percent of control at 10^-7 M or by IC50; read-out: class.
For the molecule `CN(C)c1nc(N[C@H]2CC[C@@H](NC(=S)Nc3ccc(C#N)cc3)CC2)nc2ccccc12` [compound 160, N-(4-cyanophenyl)-N′-(cis-4-{[4-(dimethylamino)quinazolin-2-yl]amino}cyclohexyl)thiourea], the IC50 is under 50 nM.

With `CN(C)c1nc(N[C@H]2CC[C@@H](NC(=O)Nc3ccccc3I)CC2)nc2ccccc12` [compound 101, N-(cis-4-{[4-(dimethylamino)quinazolin-2-yl]amino}cyclohexyl)-N′-(2-iodophenyl)urea], the IC50 was under 50 nM.

For the molecule `CN(C)c1nc(N[C@H]2CC[C@@H](NC(=O)Nc3cccc4ccccc34)CC2)nc2ccccc12` [compound 50, N-(cis-4-{[4-(dimethylamino)quinazolin-2-yl]amino}cyclohexyl)-N′-1-napthylurea], the IC50 was under 50 nM.

`CN(C)c1nc(N[C@H]2CC[C@@H](NC(=O)Nc3ccccc3Br)CC2)nc2ccccc12` [compound 10, N-(2-bromophenyl)-N′-(cis-4-{[4-(dimethylamino)quinazolin-2-yl]amino}cyclohexyl)urea]: the IC50 is under 50 nM.

In the case of `CN(C)c1nc(N[C@H]2CC[C@@H](NC(=O)NCCc3ccccc3)CC2)nc2ccccc12` [compound 842, N-(cis-4-{[4-(dimethylamino)quinazolin-2-yl]amino}cyclonexyl)-N′-(2-phenylethyl)urea], the IC50 lay within 50 to 200 nM.

Regarding `CN(C)c1nc(N[C@H]2CC[C@@H](NC(=O)Nc3c(Br)cc(F)cc3Br)CC2)nc2ccccc12` [compound 83], the IC50 is over 200 nM.

For `CCOC(=O)NC[C@H]1CC[C@@H](Nc2nc(N(C)C)c3ccccc3n2)CC1` [compound 874], the IC50 was over 200 nM.

As to `CCCCCCCCOC(=O)NC[C@H]1CC[C@@H](Nc2nc(N(C)C)c3ccccc3n2)CC1` [compound 873], the IC50 was over 200 nM.

Still in this assay, the particulars now being: class by percent of control at 10^−7 M or by IC50; read-out: class.
For `CN(C)c1nc(N[C@H]2CC[C@@H](NC(=S)Nc3ccccc3Br)CC2)nc2ccccc12` [Example 1014, N-(2-bromophenyl)-N′-(cis-4-{[4-(dimethylamino)quinazolin-2-yl]amino}cyclohexyl)thiourea], the IC50 is 50 to 200 nM.

In the case of `CN(C)c1nc(N[C@H]2CC[C@@H](NC(=O)c3ccc(Oc4cccc(Br)c4)nc3)CC2)nc2ccccc12` [Example 1072, 6-(3-bromophenoxy)-N-(cis-4-{[4-(dimethylamino)quinazolin-2-yl]amino}cyclohexyl)nicotinamide], the IC50 is over 200 nM.

`CN(C)c1nc(N[C@H]2CC[C@@H](C(=O)NCc3ccc(F)cc3Cl)CC2)nc2ccccc12` [Example 1182, cis-N-(2-chloro-4-fluorobenzyl)-4-{[4-(dimethylamino)quinazolin-2-yl]amino}cyclohexanecarboxamide]: the IC50 is under 50 nM.
